Tested on: Patients With Major Depressive Disorder
Experiment: Phase 3 MOUNTAIN study: sexual functioning by Changes in Sexual Functioning Questionnaire-14 (CSFQ-14), post-hoc analysis
Assay type: in vivo, human
Conditions: for Odds Ratio for Sexual Dysfunction (Compound (1) relative to placebo): GEE model
Method: Results from the multicenter, double-blind, randomized, placebo-controlled Phase 3 MOUNTAIN trial (NCT03672175) evaluating the efficacy, safety, and tolerability of 14-day treatment with 20 mg or 30 mg of Compound (1) compared with placebo (PBO) have been previously presented (Clayton, A. H. Presented at SOBP 2020 Virtual Meeting).
This analysis assessed the effect of 30 mg of Compound (1) treatment compared with PBO on sexual function, as measured by the Changes in Sexual Functioning Questionnaire-14 (CSFQ-14), in the MOUNTAIN trial.
Adult outpatients (18-65 years; n=581) with MDD (HAMD-17 total score≥22 and MADRS total score≥32) were randomized 1:1:1 to Compound (1) 20 mg (data not shown), Compound (1) 30 mg, or PBO, once-nightly for 2 weeks, with follow-up through Day 42 (see FIG. 1 for Study Design). Standard of care antidepressants that had been taken at the same dose for ≥60 days prior to Day 1 of the trial were permitted. Exclusion criteria included attempted suicide associated with the current depressive episode; treatment-resistant depression, and medical history of bipolar disorder, schizophrenia, and/or schizoaffective disorder.
Exploratory, post-hoc analyses included evaluation of sexual functioning using the 14-item; self-report CSFQ-14 at baseline, Day 15, 28, and 42.
Male and female sexual functioning was evaluated as an exploratory endpoint with the validated, 14-item, patient-reported CSFQ-14 scores at baseline, Day 15, Day 28, and Day 42. CSFQ-14 also has 5 sub-scales that measure pleasure, desire/frequency, desire/interest, arousal/excitement, and orgasm/completion, which were also evaluated. Sexual dysfunction was defined as a CSFQ-14TS of ≤41 for females and ≤47 for males. Mixed model for repeated measure and generalized estimating equation were used for analysis on patients with a baseline HAMD-17 total score≥24 (n=323).
The model used was a generalized estimating equation (GEE) for binary response model, with factors for treatment (Compound (1) 30 mg or placebo), baseline CSFQ-14 total score, antidepressant use at baseline (Yes or No), assessment time point, and time point-by-treatment interaction with exchangeable covariance structure.
Odds ratio is the estimate of the odds of having CSFQ sexual dysfunction for subjects treated with Compound (1) relative to that for subjects treated with placebo.

## C[C@@]1(O)CC[C@H]2[C@H](CC[C@@H]3[C@@H]2CC[C@]2(C)[C@@H](C(=O)Cn4cc(C#N)cn4)CC[C@@H]32)C1 [Compound (1), 1-(2-((3R,5R,8R,9R,10S,13S,14S,17S)-3-hydroxy-3,13-dimethylhexadecahydro-1H-cyclopenta[a]phenanthren-17-yl)-2-oxoethyl)-1H-pyrazole-4-carbonitrile]
30 mg, Days 15, 28, 42, exception: arousal/excitement at Day 42 (FIG. 5)
  difference vs PBO in percentage of male patients with sexual dysfunction across individual CSFQ-14 subscales: no significant differences
30 mg, Days 15, 28, 42, exception: desire/frequency at Day 15 and orgasm/completion at Day 28 (FIG. 4)
  difference vs PBO in percentage of female patients with sexual dysfunction across individual CSFQ-14 subscales: no significant differences
30 mg, all patients
  difference vs PBO in percentage of patients with sexual dysfunction in the individual CSFQ-14 subscales: no significant differences
30 mg, overall conclusion
  treatment-emergent sexual dysfunction: not associated with treatment-emergent sexual dysfunction
30 mg, through Day 42
  impairment of sexual function compared to placebo during the trial: No impairment of sexual function
Day 15, Men, 30 mg, CSFQ total score<=47 = sexual dysfunction
  Odds Ratio for Sexual Dysfunction (Compound (1) relative to placebo): 0.72
Day 15, Women, 30 mg, CSFQ total score<=41 = sexual dysfunction
  Odds Ratio for Sexual Dysfunction (Compound (1) relative to placebo): 1.00
Day 28, Men, 30 mg, CSFQ total score<=47 = sexual dysfunction
  Odds Ratio for Sexual Dysfunction (Compound (1) relative to placebo): 1.07
Day 28, Women, 30 mg, CSFQ total score<=41 = sexual dysfunction
  Odds Ratio for Sexual Dysfunction (Compound (1) relative to placebo): 1.01
Day 42 (181/272), from 82.4% (266/323) at baseline, Compound (1) 30 mg- and PBO-treated patients together
  percentage of all patients with sexual dysfunction as assessed by CSFQ-14TS thresholds: 66.5%
Day 42, Men, 30 mg, CSFQ total score<=47 = sexual dysfunction
  Odds Ratio for Sexual Dysfunction (Compound (1) relative to placebo): 0.88
Day 42, Women, 30 mg, CSFQ total score<=41 = sexual dysfunction
  Odds Ratio for Sexual Dysfunction (Compound (1) relative to placebo): 0.91

From patent publication US20240122945A1, “USE OF NEUROACTIVE STEROIDS FOR TREATMENT OF SEXUAL DYSFUNCTION” (Sage Therapeutics, Inc., priority 2021, published 2024)
